Results reported in patent publication US20080194548A1, “Drug Combination Therapy and Pharmaceutical Compositions for Treating Inflammatory Disorders” (priority 2005, published 2008).

Legend:
Female C57BL/6 mice = assay: MOGp35-55-induced disease activity model in mice (oral gavage, daily disease activity score); format: in vivo; details: single agent; for maximal extent and duration of disease activity: compared with control animals; for onset of disease symptoms: low and high doses, compared to animals that receive vehicle
[1] = tested on: monocyte chemoattractant protein 1 (MCP1); details: human peripheral blood mononuclear cells or cultured endothelial cells; cited from earlier work
cytokine TNFα = details: microglia and astrocytes; cited from earlier work
[2] = tested on: inducible nitric oxide synthetase (i-NOS); details: microglia and astrocytes; cited from earlier work

CC(C)[C@]1(C(=O)N2COc3ccc(C(F)(F)F)cc3C2)CC[C@@H](N2CC[C@@H](c3cccc(C(=O)O)c3)[C@H](C)C2)C1 (single isomer, unassigned) [Compound 4, 3-[(3S,4R or 3R,4S)-1-((1R,3S)-3-Isopropyl-3-{[6-(trifluoromethyl)-2H-1,3-benzoxazin-3(4H)-yl]carbonyl}cyclopentyl)-3-methylpiperidin-4-yl]benzoic acid]
maximal extent and duration of disease activity (Female C57BL/6 mice): reduced compared with control animals
onset of disease symptoms (Female C57BL/6 mice): delayed in a dose-dependent manner

CC(C)c1c(C(=O)Nc2ccccc2)c(-c2ccccc2)c(-c2ccc(F)cc2)n1CC[C@@H](O)C[C@@H](O)CC(=O)O [atorvastatin]
maximal extent and duration of disease activity (Female C57BL/6 mice): reduced compared with control animals
onset of disease symptoms (Female C57BL/6 mice): delayed in a dose-dependent manner

CC[C@H](C)C(=O)O[C@H]1C[C@@H](C)C=C2C=C[C@H](C)[C@H](CC[C@@H]3C[C@@H](O)CC(=O)O3)[C@H]21 [Lovastatin, lovastatin]
inhibition of MCP1 production [1]: inhibit
inhibition of the cytokine TNFα (cytokine TNFα): inhibit
inhibition of inducible nitric oxide synthetase (i-NOS) [2]: inhibit

CO[C@@H]1COCC[C@@H]1N[C@@H]1CC[C@@](C(=O)N2CCc3ncc(C(F)(F)F)cc3C2)(C(C)C)C1 [Compound 1, N-((1R,3S)-3-isopropyl-3-{[3-(trifluoromethyl)-7,8-dihydro-1,6-naphthyridin-6(5H)-yl]carbonyl}cyclopentyl)-N-[(3S,4S)-3-methoxytetrahydro-2H-pyran-4-yl]amine]
maximal extent and duration of disease activity (Female C57BL/6 mice): reduced compared with control animals
onset of disease symptoms (Female C57BL/6 mice): delayed in a dose-dependent manner
